The subject of experiment [1] is human breast MDA-MB-361 tumor cell line. Nature of the experiment: In vitro cell culture growth assay (MTS), MDA-MB-361. It counts as cell-based. The following applies: Homo sapiens, MTS cell growth assay, three days after drug treatment, MDA-MB-361 cells, read-out: IC50 MDA-MB-361.
A further experiment addresses Human mTOR (FLAG-TOR) (Homo sapiens, UniProt P42345). The experiment in a line: mTOR kinase assay (DELFIA format, purified enzyme). It counts as biochemical. The settings on record: read-out: IC50 mTOR.
Experiment [2] deals with human prostate PC3-mm2 tumor cell line. The experiment in a line: In vitro cell culture growth assay (MTS), PC3-mm2. It counts as cell-based. The following applies: Homo sapiens, PC3MM2, 72 h, MTS cell growth assay, three days after drug treatment, PC3-mm2 cells; read-out: IC50 PC3-mm2.
The target in a further experiment is PI3K-α (Homo sapiens, UniProt P42336). The experiment in a line: PI3K-alpha fluorescence polarization assay. The settings on record: read-out: IC50 PI3Kα.
PI3K-α, sequence (P42336 whole entry, species assumed): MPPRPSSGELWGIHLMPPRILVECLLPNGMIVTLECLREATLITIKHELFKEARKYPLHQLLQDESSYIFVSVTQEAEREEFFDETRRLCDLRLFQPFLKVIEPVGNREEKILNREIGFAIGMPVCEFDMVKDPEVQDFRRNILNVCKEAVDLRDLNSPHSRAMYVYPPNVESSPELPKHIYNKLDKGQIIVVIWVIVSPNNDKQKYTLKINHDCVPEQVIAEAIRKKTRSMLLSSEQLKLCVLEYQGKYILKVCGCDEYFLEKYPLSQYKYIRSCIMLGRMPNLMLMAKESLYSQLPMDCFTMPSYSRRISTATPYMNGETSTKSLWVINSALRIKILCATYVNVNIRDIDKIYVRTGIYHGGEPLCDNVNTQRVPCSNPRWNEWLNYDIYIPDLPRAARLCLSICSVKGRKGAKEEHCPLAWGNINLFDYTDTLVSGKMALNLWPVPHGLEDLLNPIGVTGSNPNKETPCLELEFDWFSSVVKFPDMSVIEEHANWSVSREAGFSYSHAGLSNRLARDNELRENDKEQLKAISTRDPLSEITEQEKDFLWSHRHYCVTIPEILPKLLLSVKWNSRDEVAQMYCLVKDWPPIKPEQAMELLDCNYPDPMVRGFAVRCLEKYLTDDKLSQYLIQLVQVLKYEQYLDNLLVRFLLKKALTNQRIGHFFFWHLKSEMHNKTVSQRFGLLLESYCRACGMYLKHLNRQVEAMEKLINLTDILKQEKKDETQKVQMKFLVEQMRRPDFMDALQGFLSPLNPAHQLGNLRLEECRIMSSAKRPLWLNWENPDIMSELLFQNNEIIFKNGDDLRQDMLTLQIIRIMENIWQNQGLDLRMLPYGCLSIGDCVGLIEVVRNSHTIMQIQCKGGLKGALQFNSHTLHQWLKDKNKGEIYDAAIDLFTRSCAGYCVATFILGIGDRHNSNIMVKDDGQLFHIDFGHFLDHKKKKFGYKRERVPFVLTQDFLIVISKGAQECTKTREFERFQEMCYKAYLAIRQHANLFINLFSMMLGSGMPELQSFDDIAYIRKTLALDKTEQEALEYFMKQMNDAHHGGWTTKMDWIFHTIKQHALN
PI3K-α, sequence (P27986 whole entry partner, species assumed): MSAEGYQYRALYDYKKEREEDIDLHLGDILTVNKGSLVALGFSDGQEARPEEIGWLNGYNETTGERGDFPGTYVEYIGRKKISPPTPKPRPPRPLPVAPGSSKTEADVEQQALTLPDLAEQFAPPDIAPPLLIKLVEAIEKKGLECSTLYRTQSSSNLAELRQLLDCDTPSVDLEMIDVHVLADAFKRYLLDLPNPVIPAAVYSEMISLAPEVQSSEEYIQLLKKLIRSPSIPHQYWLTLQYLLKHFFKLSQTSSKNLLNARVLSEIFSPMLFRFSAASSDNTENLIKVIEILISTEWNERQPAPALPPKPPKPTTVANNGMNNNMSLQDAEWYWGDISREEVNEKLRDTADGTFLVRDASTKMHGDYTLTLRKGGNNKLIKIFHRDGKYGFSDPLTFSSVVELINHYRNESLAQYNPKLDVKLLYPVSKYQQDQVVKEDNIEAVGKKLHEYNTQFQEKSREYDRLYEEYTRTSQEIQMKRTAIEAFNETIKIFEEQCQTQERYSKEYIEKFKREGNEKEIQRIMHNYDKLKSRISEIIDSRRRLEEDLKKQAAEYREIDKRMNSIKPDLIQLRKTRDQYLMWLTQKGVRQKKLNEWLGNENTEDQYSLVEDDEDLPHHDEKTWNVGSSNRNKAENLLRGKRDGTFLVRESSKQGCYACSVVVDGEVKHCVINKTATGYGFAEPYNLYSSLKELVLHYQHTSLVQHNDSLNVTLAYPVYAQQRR
The target of a further experiment is PI3K-γ (Homo sapiens, UniProt P48736). Nature of the experiment: PI3K-gamma fluorescence polarization assay. The following applies: read-out: IC50 PI3Kγ.
PI3K-γ, sequence (P48736 whole entry, species assumed): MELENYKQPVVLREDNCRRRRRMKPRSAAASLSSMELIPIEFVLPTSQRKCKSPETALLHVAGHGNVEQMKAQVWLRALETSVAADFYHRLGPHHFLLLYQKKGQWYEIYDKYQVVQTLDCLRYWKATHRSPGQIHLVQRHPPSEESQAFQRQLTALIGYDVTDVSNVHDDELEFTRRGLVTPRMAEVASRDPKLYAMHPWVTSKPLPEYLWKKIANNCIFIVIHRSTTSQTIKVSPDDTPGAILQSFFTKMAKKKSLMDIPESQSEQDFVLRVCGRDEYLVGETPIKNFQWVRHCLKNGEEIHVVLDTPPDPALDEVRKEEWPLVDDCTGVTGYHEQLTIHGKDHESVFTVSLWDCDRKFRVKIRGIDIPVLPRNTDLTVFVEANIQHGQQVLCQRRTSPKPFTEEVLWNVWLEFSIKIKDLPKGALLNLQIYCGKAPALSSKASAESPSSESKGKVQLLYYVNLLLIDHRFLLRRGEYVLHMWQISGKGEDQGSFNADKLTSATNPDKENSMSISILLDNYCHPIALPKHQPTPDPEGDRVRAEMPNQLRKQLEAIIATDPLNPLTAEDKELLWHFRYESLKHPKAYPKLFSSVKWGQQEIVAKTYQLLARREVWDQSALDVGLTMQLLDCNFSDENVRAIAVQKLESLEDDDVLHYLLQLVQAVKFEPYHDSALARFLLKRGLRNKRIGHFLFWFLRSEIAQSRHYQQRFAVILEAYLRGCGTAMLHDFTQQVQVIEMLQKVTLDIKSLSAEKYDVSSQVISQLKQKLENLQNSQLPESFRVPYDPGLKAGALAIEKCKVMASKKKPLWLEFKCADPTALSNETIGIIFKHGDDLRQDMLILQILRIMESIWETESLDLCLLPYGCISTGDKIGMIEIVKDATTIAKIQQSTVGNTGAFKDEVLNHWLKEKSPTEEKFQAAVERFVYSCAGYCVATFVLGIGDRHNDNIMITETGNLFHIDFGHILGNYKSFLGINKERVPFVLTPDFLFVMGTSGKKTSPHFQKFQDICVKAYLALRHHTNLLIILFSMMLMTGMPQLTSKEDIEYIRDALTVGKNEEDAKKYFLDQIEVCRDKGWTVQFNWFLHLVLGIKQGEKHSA

pIC50: −log10 of the molar value. Read-outs that look alike come from different tables or passages of the source. A value given as a limit tells only on which side of the number the result lay.

Human mTOR (FLAG-TOR), sequence (P42345 1360-2549 limits assumed): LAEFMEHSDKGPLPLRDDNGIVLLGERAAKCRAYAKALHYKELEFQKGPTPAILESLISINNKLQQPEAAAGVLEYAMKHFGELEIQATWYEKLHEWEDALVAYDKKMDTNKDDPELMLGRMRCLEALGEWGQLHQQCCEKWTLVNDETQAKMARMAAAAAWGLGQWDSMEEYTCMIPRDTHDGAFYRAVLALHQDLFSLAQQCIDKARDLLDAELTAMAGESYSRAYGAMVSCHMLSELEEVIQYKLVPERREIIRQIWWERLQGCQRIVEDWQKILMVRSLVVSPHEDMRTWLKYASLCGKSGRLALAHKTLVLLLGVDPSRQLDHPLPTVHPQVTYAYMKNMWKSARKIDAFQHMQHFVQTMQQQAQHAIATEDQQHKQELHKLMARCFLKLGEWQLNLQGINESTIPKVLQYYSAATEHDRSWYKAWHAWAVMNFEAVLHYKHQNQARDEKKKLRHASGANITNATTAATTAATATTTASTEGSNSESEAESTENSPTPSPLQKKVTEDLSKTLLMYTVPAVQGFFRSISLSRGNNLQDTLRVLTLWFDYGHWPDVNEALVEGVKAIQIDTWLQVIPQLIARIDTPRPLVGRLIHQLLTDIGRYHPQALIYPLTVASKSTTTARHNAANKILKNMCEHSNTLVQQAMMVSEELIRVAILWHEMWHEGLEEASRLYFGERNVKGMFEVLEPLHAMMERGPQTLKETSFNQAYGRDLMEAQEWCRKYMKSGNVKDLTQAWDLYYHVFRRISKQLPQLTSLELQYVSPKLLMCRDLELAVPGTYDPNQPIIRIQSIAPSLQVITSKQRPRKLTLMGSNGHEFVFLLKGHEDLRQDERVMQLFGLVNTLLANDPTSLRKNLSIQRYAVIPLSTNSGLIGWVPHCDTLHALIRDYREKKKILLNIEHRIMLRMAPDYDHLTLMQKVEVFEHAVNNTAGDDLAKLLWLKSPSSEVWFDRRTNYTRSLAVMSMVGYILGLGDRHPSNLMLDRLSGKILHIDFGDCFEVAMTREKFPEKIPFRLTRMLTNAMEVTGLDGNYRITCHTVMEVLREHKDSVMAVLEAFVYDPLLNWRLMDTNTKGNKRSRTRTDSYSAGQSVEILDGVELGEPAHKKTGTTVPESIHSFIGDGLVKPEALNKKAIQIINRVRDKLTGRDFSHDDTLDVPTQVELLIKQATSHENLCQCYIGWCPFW

With `COCCNC(=O)c1ccc(NC(=O)Nc2ccc(-c3nc(N4CCOC[C@@H]4C)nc(N4CCOC[C@@H]4C)n3)cc2)cc1` [Example 639, 4-{[(4-{4,6-bis[(3S)-3-methylmorpholin-4-yl]-1,3,5-triazin-2-yl}phenyl)carbamoyl]amino}-N-(2-methoxyethyl)benzamide], the pIC50 in experiment [1] (72 h) is 7.80; on Human mTOR (FLAG-TOR), 9.00; in experiment [2], 7.57; at PI3K-α, 7.84; at PI3K-γ it was 6.91.

For the compound `CN1CCN(C(=O)c2ccc(NC(=O)Nc3ccc(-c4nc(N5CCOCC5)nc(N5CCN(C(=O)N(C)C)CC5)n4)cc3)cc2)CC1` [Example 643, N,N-dimethyl-4-(4-{4-[({4-[(4-methylpiperazin-1-yl)carbonyl]phenyl}carbamoyl)amino]phenyl}-6-morpholin-4-yl-1,3,5-triazin-2-yl)piperazine-1-carboxamide], the pIC50 in experiment [1] (MDA-MB-361, 72 h) was 7.72; on Human mTOR (FLAG-TOR), 8.15; in experiment [2] it was 7.23; at PI3K-α, 8.21; on PI3K-γ, 7.37.

Take `CN(C)C(=O)N1CCN(c2nc(-c3ccc(NC(=O)Nc4ccc(C(=O)Nc5ccnnc5)cc4)cc3)nc(N3CCOCC3)n2)CC1` [Example 644, N,N-dimethyl-4-{4-morpholin-4-yl-6-[4-({[4-(pyridazin-4-ylcarbamoyl)phenyl]carbamoyl}amino)phenyl]-1,3,5-triazin-2-yl}piperazine-1-carboxamide]: the pIC50 in experiment [1] (72 h) was 7.29; at Human mTOR (FLAG-TOR) it was 9.00; in experiment [2] it was 6.73; at PI3K-α it was 8.11; at PI3K-γ, 7.23.

In the case of `CN(C)C(=O)N1CCN(c2nc(-c3ccc(NC(=O)Nc4ccc(C(=O)O)cc4)cc3)nc(N3CCOCC3)n2)CC1` [Example 646, 4-{[(4-{4-[4-(dimethylcarbamoyl)piperazin-1-yl]-6-morpholin-4-yl-1,3,5-triazin-2-yl}phenyl)carbamoyl]amino}benzoic acid], the pIC50 was 7.49 in experiment [1] (MDA-MB-361, 72 h); 8.22 on Human mTOR (FLAG-TOR); 6.65 in experiment [2]; 7.64 at PI3K-α; 7.07 at PI3K-γ.

`COCCNC(=O)c1ccc(NC(=O)Nc2ccc(-c3nc(N4CCOCC4)nc(N4CCN(C(=O)N(C)C)CC4)n3)cc2)cc1` [Example 647, 4-(4-{4-[({4-[(2-methoxyethyl)carbamoyl]phenyl}carbamoyl)amino]phenyl}-6-morpholin-4-yl-1,3,5-triazin-2-yl)-N,N-dimethylpiperazine-1-carboxamide]: the pIC50 in experiment [1] (72 h) is 7.34; on Human mTOR (FLAG-TOR), 8.52; in experiment [2] it was 6.87; on PI3K-α, 7.61; on PI3K-γ, 6.97.

As to `CN(C)CCN(C)C(=O)c1ccc(NC(=O)Nc2ccc(-c3nc(N4CCOCC4)nc(N4CCN(C(=O)N(C)C)CC4)n3)cc2)cc1` [Example 648, 4-[4-(4-{[(4-{[2-(dimethylamino)ethyl](methyl)carbamoyl}phenyl)carbamoyl]amino}phenyl)-6-morpholin-4-yl-1,3,5-triazin-2-yl]-N,N-dimethylpiperazine-1-carboxamide], the pIC50 is 7.92 in experiment [1] (72 h); 8.52 on Human mTOR (FLAG-TOR); 7.47 in experiment [2]; 8.70 at PI3K-α; 7.57 at PI3K-γ.

As to `CCN1CCN(C(=O)c2ccc(NC(=O)Nc3ccc(-c4nc(N5CCOCC5)nc(N5CCN(C(=O)N(C)C)CC5)n4)cc3)cc2)CC1` [Example 649, 4-(4-{4-[({4-[(4-ethylpiperazin-1-yl)carbonyl]phenyl}carbamoyl)amino]phenyl}-6-morpholin-4-yl-1,3,5-triazin-2-yl)-N,N-dimethylpiperazine-1-carboxamide], the pIC50 in experiment [1] (MDA-MB-361, 72 h) is 8.05; on Human mTOR (FLAG-TOR), 8.22; in experiment [2] it was 7.43; on PI3K-α, 8.19; at PI3K-γ, 7.42.

With `OCc1cccc(-c2nc(N3CCOCC3)nc(N3C4CCC3COC4)n2)c1` [Example 682, {3-[4-morpholin-4-yl-6-(3-oxa-8-azabicyclo[3.2.1]oct-8-yl)-1,3,5-triazin-2-yl]phenyl}methanol], the pIC50 in experiment [1] (72 h) is 5.98; on Human mTOR (FLAG-TOR), 7.05; in experiment [2], 6.12; at PI3K-α it was 7.07; at PI3K-γ, 5.89.

With `Oc1cccc(-c2nc(N3CCOCC3)nc(N3C4CCC3COC4)n2)c1` [Example 683, 3-[4-morpholin-4-yl-6-(3-oxa-8-azabicyclo[3.2.1]oct-8-yl)-1,3,5-triazin-2-yl]phenol], the pIC50 in experiment [1] (72 h) was 6.17; on Human mTOR (FLAG-TOR) it was 7.60; in experiment [2] it was 6.23; on PI3K-α it was 6.92; at PI3K-γ it was 5.88.

For `Nc1nc2cc(-c3nc(N4CCOCC4)nc(N4C5CCC4COC5)n3)ccc2[nH]1` [Example 684, 5-[4-morpholin-4-yl-6-(3-oxa-8-azabicyclo[3.2.1]oct-8-yl)-1,3,5-triazin-2-yl]-1H-benzimidazol-2-amine], the pIC50 in experiment [1] (72 h) is 6.09; on Human mTOR (FLAG-TOR), 7.63; in experiment [2], 5.99; on PI3K-α, 6.81; on PI3K-γ it was 5.63.

For `O=C(Nc1ccccc1)Nc1ccc(-c2nc(N3CCOCC3)nc(N3C4CCC3CC(O)C4)n2)cc1` (stereo not drawn) [Example 685, 1-{4-[4-(3-hydroxy-8-azabicyclo[3.2.1]oct-8-yl)-6-morpholin-4-yl-1,3,5-triazin-2-yl]phenyl}-3-phenylurea], the pIC50 was less than 5.00 in experiment [1] (72 h); 9.08 at Human mTOR (FLAG-TOR); less than 5.00 in experiment [2]; 8.15 on PI3K-α; 7.58 on PI3K-γ.

Regarding `CN1CCN(Nc2nc(-c3ccc(NC(=O)Nc4ccccc4)cc3)nc(N3CCOCC3)n2)CC1` [Example 686, 1-(4-{4-[(4-methylpiperazin-1-yl)amino]-6-morpholin-4-yl-1,3,5-triazin-2-yl}phenyl)-3-phenylurea], the pIC50 was 6.24 in experiment [1] (72 h); 7.59 on Human mTOR (FLAG-TOR); 5.96 in experiment [2]; 7.11 on PI3K-α; 6.27 at PI3K-γ.

For `CN1CCC(Oc2nc(-c3ccc(NC(=O)Nc4ccncc4)cc3)nc(N3CCOCC3)n2)CC1` [Example 687, 1-(4-{4-[(1-methylpiperidin-4-yl)oxy]-6-morpholin-4-yl-1,3,5-triazin-2-yl}phenyl)-3-pyridin-4-ylurea], the pIC50 is 6.45 in experiment [1] (72 h); 8.31 on Human mTOR (FLAG-TOR); 6.41 in experiment [2]; 8.40 at PI3K-α; 7.40 on PI3K-γ.

`O=C(Nc1ccncc1)Nc1ccc(-c2nc(OC3CCNCC3)nc(N3CCOCC3)n2)cc1` [Example 688, 1-{4-[4-morpholin-4-yl-6-(piperidin-4-yloxy)-1,3,5-triazin-2-yl]phenyl}-3-pyridin-4-ylurea]: the pIC50 in experiment [1] (72 h) is 5.85; on Human mTOR (FLAG-TOR) it was 8.10; in experiment [2] it was 5.71; on PI3K-α, 8.52; at PI3K-γ it was 7.45.

On to `CCOC(=O)N1CCC(Oc2nc(-c3ccc(NC(=O)Nc4ccncc4)cc3)nc(N3CCOCC3)n2)CC1` [Example 689, ethyl 4-[(4-morpholin-4-yl-6-{4-[(pyridin-4-ylcarbamoyl)amino]phenyl}-1,3,5-triazin-2-yl)oxy]piperidine-1-carboxylate], for which the pIC50 was 7.28 in experiment [1] (72 h); 7.41 at Human mTOR (FLAG-TOR); 7.07 in experiment [2]; 6.66 on PI3K-α; 5.61 at PI3K-γ.

Source of the values: patent US20090304692A1, “TRIAZINE COMPOUNDS AS PI3 KINASE AND MTOR INHIBITORS” (Wyeth, priority 2008, published 2009).
